From patent publication US10118947B2, “Modulation of structured polypeptide specificity” (BICYCLE THERAPEUTICS LIMITED, priority 2013, dated 2018)
Where two headings read alike, the source gives them in different places.

Tests used:
[1] = Quantitative plasma stability Method #3 (LC-MS, 95% plasma), rat plasma; type: in vitro ADME; conditions: rat, plasma; Table 15; method #3; read-out: t1/2 (hrs) in rat plasma (converted)
Procedure: To obtain plasma stability quantitatively, peptide stock solutions (1 mM in DMSO) were shipped to Biofocus, UK, who performed the analysis. Peptides were diluted to 100 uM with water, and diluted 1:20 in plasma (5 uM final concentration, with the plasma at 95%), sampled as appropriate, precipitated as above, and quantified using a Waters Xevo TQ-MS.

human plasma Kallikrein [2] = biological target: T1, human plasma Kallikrein (Homo sapiens, UniProt P03952); conditions: Table 1, as disclosed in PCT/EP2012/069898; cited from earlier work
T1 construct: purchased Stratech, UK
T1 sequence (P03952 20-638): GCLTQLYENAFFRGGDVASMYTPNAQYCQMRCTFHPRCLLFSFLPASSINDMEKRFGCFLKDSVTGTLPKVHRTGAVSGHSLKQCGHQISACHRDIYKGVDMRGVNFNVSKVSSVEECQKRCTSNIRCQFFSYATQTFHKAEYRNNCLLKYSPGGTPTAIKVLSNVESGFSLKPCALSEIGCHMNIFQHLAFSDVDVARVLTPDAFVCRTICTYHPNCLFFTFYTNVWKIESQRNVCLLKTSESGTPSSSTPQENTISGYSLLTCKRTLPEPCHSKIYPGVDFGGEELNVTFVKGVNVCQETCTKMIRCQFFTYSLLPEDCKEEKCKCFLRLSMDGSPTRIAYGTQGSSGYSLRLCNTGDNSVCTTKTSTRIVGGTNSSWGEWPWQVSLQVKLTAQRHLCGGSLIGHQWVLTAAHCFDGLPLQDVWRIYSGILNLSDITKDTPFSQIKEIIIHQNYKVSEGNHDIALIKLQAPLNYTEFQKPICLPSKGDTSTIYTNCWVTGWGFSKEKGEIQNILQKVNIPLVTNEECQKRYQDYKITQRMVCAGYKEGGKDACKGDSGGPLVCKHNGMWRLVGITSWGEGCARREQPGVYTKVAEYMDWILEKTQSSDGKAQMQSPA

rat plasma Kallikrein = biological target: T2, rat plasma Kallikrein (Rattus norvegicus, UniProt P14272); conditions: Table 1; read-out: Ki (nM) (rat kallikrein); cited from earlier work
T2 construct: polyhistidine tag (N, cleaved yes); proTEV cleavage site (pro-peptide linker) (N, cleaved yes); made in house; host or cells: HEK-293 (suspension-adapted)
T2 sequence (P14272 391-638 limits assumed): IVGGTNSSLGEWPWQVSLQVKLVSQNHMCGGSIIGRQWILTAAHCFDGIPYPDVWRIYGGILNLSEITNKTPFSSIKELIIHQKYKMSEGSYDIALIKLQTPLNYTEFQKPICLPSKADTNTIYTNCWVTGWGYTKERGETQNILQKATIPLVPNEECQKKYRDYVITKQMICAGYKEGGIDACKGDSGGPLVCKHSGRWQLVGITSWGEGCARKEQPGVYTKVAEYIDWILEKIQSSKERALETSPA

[3] = Table 1; Method #3; cited from earlier work
human plasma Kallikrein [4] = biological target: T1, human plasma Kallikrein; assay: Functional enzyme inhibition assay with fluorogenic substrate Z-PheArg-AMC, human plasma Kallikrein; type: biochemical
How it was run: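 Human plasma kallikrein at 26.5 pM was preincubated 15 minutes with test peptide in Tris/NaCl/MgCl2/CaCl2/BSA buffer pH7.4 at 25° C, then Z-PheArg-AMC added to 100 μM final in 4% DMSO.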

CC(=O)N[C@H]1CSCc2cc3cc(c2)CSC[C@H](NC(=O)[C@H](Cc2ccc(NC(=N)N)cc2)NC(=O)[C@H](C)NC(=O)[C@@H]2CCCN2C(=O)[C@H](Cc2c[nH]c4ccccc24)NC(=O)[C@H](CO)NC1=O)C(=O)N[C@@H](CC(C)C)C(=O)N[C@@H](Cc1c[nH]cn1)C(=O)N[C@@H](CCC(N)=O)C(=O)N[C@@H](CC(=O)O)C(=O)N[C@@H](CC(C)C)C(=O)N[C@H](C(N)=O)CSC3 [Ac-(06-34-18) 4GuanPhe5]
half-life at 5 uM [1]: 2.8 h
Ki (human plasma Kallikrein [2]): 0.34 nM
Ki (rat plasma Kallikrein): 3 nM
t1/2 (hrs) in rat plasma [3]: 2.8 h
reduction in potency/affinity compared to wildtype (human plasma Kallikrein [4]): 2 fold
Ki (human plasma Kallikrein [4]; Table 15, read-out: Ki (nM) (human kallikrein)): 0.34 nM
